# Measured values published in patent US10092540B2, “Method of treatment of a mucopolysaccharidosis” (INVENTIVA, priority 2013, dated 2018).
# Columns and labels:
# [1] = test system: GM00031 fibroblast cells, isolated from an unaffected donor; test: Intracellular chondroitin sulfate content (immunofluorescence) in control fibroblasts; type: cell-based, human; details: 72 h
# Protocol: (§1) Human dermal fibroblasts (GM00034B fibroblast cells, isolated from an MPS I patient and GM00031 fibroblast cells, isolated from an unaffected donor) were obtained from the Coriell Institute for Medical Research. Cells were cultured in 96-well plates for 24 h. The culture medium was then replaced with culture medium containing or not containing (vehicle) odiparcil at various concentrations (0.03, 0.1, 0.3, 1, 3, or 10 μM), and then the cells were incubated for 72 h. After incubation, culture media were discarded and the cells were rinsed with PBS, then fixed in PFA 4%. A part of the wells was then incubated for 2 hours at 37° C. with an enzymatic solution of chondroitinase ABC (CSase). After 2 hours of digestion with CSase ABC buffers were discarded, then the cells were rinsed with PBS and permeabilized with PBS-Triton 0.1%. The cells were then labeled using a primary anti-chondroitin sulfate antibody.
# [2] = test system: Bovine aortic endothelial cells (ECACC 92010601); test: 35S-labeled GAG level in culture supernatant of bovine aortic endothelial cells; type: cell-based
# Protocol: Bovine aortic endothelial cells (ECACC 92010601), cultured in 6-well plates, were incubated for 24 h in the presence of ^35S sodium sulfate (10 μci/ml) and of odiparcil solubilized in DMSO at various concentrations (1-10 μM; 0.1% final concentration of DMSO). The culture supernatants were recovered and the cell layers were rinsed with phosphate buffer (PBS). The culture supernatants and the rinsing solutions were combined in tubes. A solution of unlabeled dermatan sulfate (200 μg) was then added in order to serve as an entraining agent. The unincorporated ^35S was then removed by gel filtration on Sephadex G25 columns, the GAGs being eluted in the column exclusion fraction (V0). […] After centrifugation, the alcoholic precipitates were redissolved in 0.9% sodium chloride and then the radioactivity was measured on an aliquot fraction after addition of scintillation fluid in counting vials.
# In order to type the GAGs produced in the supernatants from cells in culture, the redissolved alcoholic precipitates were treated with chondroitinase ABC (Proteus vulgaris) in a proportion of 0.5 mU/μL, for 3 h at 37° C. […] After centrifugation, the alcoholic precipitates were redissolved in 0.9% sodium chloride and then the radioactivity was measured on an aliquot fraction after addition of scintillation fluid in counting vials. […]
# male C57B16/J mice [3] = test: Liver total sulfated GAG levels in tilorone-induced mucopolysaccharidosis mouse model; type: in vivo
# Protocol: (§2) The effect of odiparcil on GAG storage was assessed in a model of mucopolysaccharidosis induced by Tilorone. Chronic administration of tilorone induces GAGs accumulation in various organs including liver, spleen, and kidney (Fischer et al. 1996, 315 (Pt 2):369-375; Prokopek 1991, 42:2187-2191). Tilorone (50 mg/kg/day) was administered via drinking water and odiparcil at 30 or 100 mg/kg/day (corresponding to 15 mg/kg and 50 mg/kg given bid, respectively) was given by oral gavage. Tilorone, odiparcil or vehicle were administered to male C57B16/J mice for 28 days.
# At the end of the study period, animals were anesthetized and sacrificed. The liver of each animal was then collected, rinsed in physiological serum, blotted in absorbent paper and weighted. It was then cut in pieces and cooled by snap-freezing in liquid nitrogen before being stored at −80° C. The activity of odiparcil was assessed by quantifying total sulfated glycosaminoglycan (GAG) levels in the liver. Sulfated glycosaminoglycan concentration was measured using the Blyscan™ assay from Biocolor (UK) following the manufacturer's instructions. The data were statistically analyzed by one-way analysis of variance followed by a Tukey's test between all groups: ***: p<0.001 vs vehicle/vehicle, and $: p<0.05 vs tilorone/vehicle.
# [4] = test system: Normal human dermal fibroblasts (BIOAlternatives PF2); test: Total GAG synthesis (3H-glucosamine incorporation) by normal human dermal fibroblasts; type: cell-based; details: 10 μM, 72 h
# Protocol: Normal human dermal fibroblasts (BIOAlternatives PF2) were cultured in 96-well plates for 24 h. The culture medium was then replaced with culture medium containing or not containing (control) odiparcil at various concentrations (1 μM, 3 μM, 10 μM) or the TGF-β reference at 10 ng/ml (positive control), and then the cells were incubated for 72 h with addition of the ^3H-glucosamine radioactive label for evaluating total GAG synthesis. At the end of the incubation, a chaotropic buffer was added to the wells of the culture plates in order to lyse the fibroblasts. The total GAGs of the cell lysates were then purified by ion exchange chromatography (Q-Sepharose column). The radioactivity incorporated into the anionic fractions was measured by liquid scintillation.
# [5] = test system: GM00034B and GM01391 fibroblast cells, isolated from two MPS I patients; test: CS, DS and HS content by UPLC MSMS in MPS I fibroblasts; type: cell-based, human; details: 10 μM, 72 h, FIG. 4
# Protocol: (§3) Human dermal fibroblasts (GM00034B and GM01391 fibroblast cells, isolated from two MPS I patients and GM03181 and GM00615 fibroblasts isolated from two MPS II patients) were obtained from the Coriell Institute for Medical Research. Cells were cultured in T25-flask for 24 h. The culture medium was then replaced with culture medium containing or not containing (vehicle) odiparcil at 10 μM, and then the cells were incubated for 72 h. After incubation, culture media were discarded and the cells were rinsed with PBS, then scrapped in PBS. Cells were then collected by centrifugation and cell pellets were frozen until further analysis. Quantitation of Heparan sulfate (HS), Dermatan sulfate (DS) and Chondroitin sulfate (CS) were performed using UPLC MSMS using a method adapted from method published in Zhang et al. 2015. Glycosaminoglycan values are expressed as mean+SD in μg GAG species per milligram protein.
# male C57B16/J mice [6] = test: Urinary sulfated GAG levels in tilorone-induced mucopolysaccharidosis mouse model; type: in vivo
# Protocol: as §2
# After 21 days of treatment, urine were collected over a 24 hour period by placing the animal in diuresis/metabolic cages. The activity of odiparcil was assessed by quantifying total sulfated GAG levels in the collected urine. After a 10 to 20 fold dilution of the urine in water, sulfated glycosaminoglycan concentrations were measured using Blyscan™ assay from Biocolor (UK) following the manufacturer's instructions. Creatinine levels were also assessed on undiluted urine samples, using the CREATININE (Jaffé) kit (ref 981811) from ThermoFisher according to the manufacturer's instructions. Urinary sulfated GAG levels were normalized by creatinine levels. The data were analyzed statistically by one-way analysis of variance followed by a Tukey's test between all groups: ***: p<0.001 for vehicle/vehicle, and $$$: p<0.001 for tilorone/vehicle.
# [7] = test system: GM00034B fibroblast cells, isolated from an MPS I patient; test: Intracellular chondroitin sulfate content (immunofluorescence) in fibroblasts from an MPS I patient; type: cell-based, human; details: 72 h
# Protocol: as §1
# New Zealand Rabbits = test: Plasma GAG level and disaccharide composition in rabbits after oral administration; type: in vivo, rabbit; details: 400 mg/kg oral
# Protocol: Odiparcil was administered Orally to New Zealand Rabbits at the Dose of 400 mg/kg. 4 h after the administration, the animals were anesthetized and blood samples were taken on citrate tubes after catherization of the carotid artery. After centrifugation, the plasma was removed and frozen. The plasma GAGs were isolated after digestion of the proteins with Pronase E, for 48 h at 50° C. The proteins and the protein residues were precipitated by adding trichloroacetic acid and incubated overnight at 4° C. After centrifugation, the supernatants were collected, and then dialyzed against 100 volumes of phosphate buffer, for 48 h at 4° C. A solution of cetylpyridinium chloride (0.1% final concentration) was added to the dialysates in order to precipitate the GAGs, for 24 h at ambient temperature. The samples were then centrifuged and the supernatant was removed. The precipitate obtained was redissolved in 2M sodium chloride and the GAGs were precipitated with 5 volumes of 95% ethanol. After centrifugation, the alcoholic precipitates were redissolved in 0.9% sodium chloride and desalified on a Sephadex G25 column (PD10).
# The plasma GAGs extracted were quantified by assaying the uronic acid content, modified Bitter and Muir carbazole method. The qualitative analysis of the plasma GAG extracts was carried out by HPLC of the disaccharides obtained after enzymatic digestion with chrondroitinase ABC from Proteus vulgaris and chrondroitinase AC from Arthrobacter aurescens.
# [8] = test system: GM03181 and GM00615 fibroblasts isolated from two MPS II patients; test: CS, DS and HS content by UPLC MSMS in MPS II fibroblasts; type: cell-based, human; details: 10 μM, 72 h, FIG. 4
# Protocol: as §3
# [9] = tilorone 50 mg/kg/day via drinking water, vs vehicle/vehicle
smiles,measurement,setting,value
"Cc1cc(=O)oc2cc(O[C@@H]3SC[C@@H](O)[C@H](O)[C@H]3O)ccc12 [Odiparcil, 4-methyl-2-oxo-2H-1-benzopyran-7-yl-5-thio-β-D-xylopyranoside]",intracellular chondroitin sulfate (CS) content,"[1]; 0.03-10 μM, FIG. 3","inhibited, in a dose-dependent manner"
same,IC50 for reduction of intracellular CS,[1],in the μM range
same,extent of reduction of intracellular CS,[1],complete reduction
same,type of GAGs synthesized by the cells in culture (enzymatic digestions),[2]; chondroitinase ABC / heparinase II digestion,predominantly of chondroitin sulfate type
same,level of 35S-labeled GAGs in the culture supernatant,"[2]; odiparcil 1-10 μM, 24 h, FIG. 1","increases, in a dose-dependent manner"
same,statistical significance of effect on total GAG liver content vs tilorone/vehicle,"male C57B16/J mice [3]; odiparcil 100 mg/kg/day, p<0.05",statistically significant
same,tilorone-induced accumulation of liver total GAG levels,"male C57B16/J mice [3]; odiparcil 30 or 100 mg/kg/day oral gavage with tilorone, end of study, FIG. 6",decreased
same,total GAG synthesis (dose dependence),"[4]; 1 μM, 3 μM, FIG. 2","stimulates, in a dose-dependent manner"
same,stimulation of total GAG synthesis vs control,[4],+94%
same,chondroitin sulfate (CS) content,[5],inhibited
same,dermatan sulfate (DS) content,[5],inhibited
same,heparan sulfate (HS) content,[5],inhibited
same,statistical significance of effect on urinary sulfated GAG levels vs tilorone/vehicle,"male C57B16/J mice [6]; odiparcil 30 and 100 mg/kg/day, p<0.001",statistically significant at both tested doses
same,sulfated GAG levels in urine (normalized by creatinine),"male C57B16/J mice [6]; odiparcil 30 or 100 mg/kg/day oral gavage with tilorone, urine after 21 days, FIG. 5",increased sulfated GAG levels in urine in a dose-dependent manner
same,intracellular chondroitin sulfate (CS) content,"[7]; 0.03-10 μM, FIG. 3","inhibited, in a dose-dependent manner"
same,IC50 for reduction of intracellular CS,[7],in the μM range
same,extent of reduction of intracellular CS,[7],complete reduction
same,Δdi-0S (%) nonsulfated disaccharides,"New Zealand Rabbits; rabbit plasma GAGs, 4 h",18.6%
same,Δdi-4S (%) 4-sulfated disaccharides,"New Zealand Rabbits; rabbit plasma GAGs, 4 h",26%
same,Δdi-4S DS (%) 4-sulfated disaccharides (dermatan sulfate component),"New Zealand Rabbits; rabbit plasma GAGs, 4 h",20.5%
same,Δdi-6S (%) 6-sulfated disaccharides (galactosamine-6-sulfate component),"New Zealand Rabbits; rabbit plasma GAGs, 4 h",30.8%
same,Δdi-UA2S (%) 2UA-sulfated disaccharides,"New Zealand Rabbits; rabbit plasma GAGs, 4 h",4.1%
same,factor of increase of plasma GAG level compared with control animals,"New Zealand Rabbits; rabbit, 4 h",5
same,μg UA/ml plasma (plasma GAG level via uronic acid content),"New Zealand Rabbits; rabbit, 4 h after administration",11.4 μg UA/ml
same,chondroitin sulfate (CS) content,[8],inhibited
same,dermatan sulfate (DS) content,[8],inhibited
same,heparan sulfate (HS) content,[8],inhibited
"CCN(CC)CCOc1ccc2c(c1)C(=O)c1cc(OCCN(CC)CC)ccc1-2 [Tilorone, reference compound]",GAG levels in the liver,male C57B16/J mice [3]; [9],increased
same,GAG levels in urine,male C57B16/J mice [6]; [9],increased
